Experimental data taken from EP4600263A1, “KERATIN YK93-9, PREPARATION METHOD THEREFOR, PHARMACEUTICAL COMPOSITION THEREOF, AND USE THEREOF” (INSTITUTE OF MATERIA MEDICA, CHINESE ACADEMY OF MEDICAL …, priority 2022, dated 2024).
Structures can show the parent of a compound that is named as a salt.

Columns and labels:
[1] = tested on: acetic acid-induced writhing of mice; test: pharmacodynamic test on mouse pain model (acetic acid-induced writhing); type: in vivo, Kunming mice; conditions: Tramadol Hydrochloride 50mg/kg; 1% acetic acid intraperitoneally, writhing within 15 minutes
Protocol: • Animals: Male Kunming mice; • Drugs: Tramadol Hydrochloride Sustained Release Tablets, Glacial acetic acid, YK93-9; • Instruments: electronic balance, timer • Experiment grouping: • Normal control group; • Positive control group: Tramadol Hydrochloride group; • Protein YK93-9, (0.5g/kg) group.
Mice in the YK93-9 (0.5g/kg) group were administered by gavage, while mice in the model group were given an equal volume of CMC-Na once a day for 7 consecutive days. 30 minutes after the last administration, 1% acetic acid was administered intraperitoneally, and the writhing times of mice within 15 minutes was recorded, and the inhibition rate of drug-induced writhing reaction was calculated. The observation criteria were concave abdominal cavity, extended hind limbs, and raised buttocks.
The inhibition rate was calculated by (Mean number of writhing reactions in the normal control group - Mean number of writhing reactions in the treatment group)/Mean number of writhing reactions in the normal control group *100%.

[2] = tested on: mouse prostatic hyperplasia model; test: pharmacodynamic test on mouse prostatic hyperplasia model (subcutaneous propionate testosterone); type: in vivo, Kunming mice; conditions: 30 days; for Average weight: male Kunming mice; for prostate index: wet weight of the prostate (mg)/body weight of the mouse (g)
Protocol: • Animals: Male Kunming mice, weight: 18-20 grams • Drugs: propionate testosterone injection (Ningbo Second Hormon Factory), finasteride (Merck Sharp & Dohme, MSD) • Instruments: electronic balance • Experiment grouping: Normal control group; • Model group: Androgen loading Model; • Positive control group: finasteride (1mg/kg) group; finasteride (3 mg/kg) group; • YK93-9 (0.5g/kg) group.
Preparation of experimental animals: The experimental animals were adapted to the experimental environment (temperature 22°C±2°C, relative humidity 50%±2%) for 1 day.
Subcutaneous injection of propionate testosterone to replicate mice prostatic hyperplasia model: Mice were randomly grouped 10 in each group before the model being established. Propionate testosterone (0.01mg/kg) in soybean oil was injected subcutaneously, once a day for 30 consecutive days. Mice in the normal control group were injected subcutaneously with an equal volume of sodium carboxymethyl cellulose. Immediately after the model was established, finasteride 1mg/kg, finasteride 3m g/kg, or YK93-9 0.5g/kg were orally administered. Mice were weighed on the next day. After 30 days of administration, mice were weighed, executed. The prostate was excised through a median incision in the lower abdomen, the wet weight was weighed, and the prostate index was calculated by the wet weight of the prostate (mg)/body weight of the mouse (g).
The average value, standard deviation and standard error of the prostate index in each group were calculated. The data from the groups were compared with each other by T.TEST, and P<0.05 was considered as a significant difference.

[3] = cyclophosphamide 0.1 g/kg group, before administration
[4] = cyclophosphamide 0.1 g/kg once a week
[5] = cyclophosphamide 0.1 g/kg intraperitoneally, single time
[6] = cyclophosphamide 0.1 g/kg intraperitoneally, single time, vs normal control group
[7] = cyclophosphamide 100mg/kg, vs normal control group, P<0.05

Protocol for B16F10 melanoma: Subcutaneous inoculation of B16F10 cell suspension to replicate a mouse melanoma model: Under sterile conditions, the tumor block was removed, ground into tumor fluid, the concentration was adjusted with physiological saline to 2.58 × 10^6 /ml, and 0.2 ml was taken to evenly inoculate subcutaneously on the armpit back of mice. On the next day, the animals were randomly grouped and administration began (recorded as Day 0). […] On the day of treatment, weight was measured, 20µL of blood was obtained by taking blood from the eye socket and the blood routine analysis was performed, the tumor block was peeled off, weighed and photographed, and the tumor suppression rate was calculated.
(§1) The tumor suppression rate [(The average weight of the tumor in the normal control group - the average weight of the tumor in the experimental group) / The average weight of the tumor in the normal control group × 100 %] and average value, standard deviation and standard errors of tumor weight were calculated. The data from the groups were compared with each other by T.TEST, and P<0.05 was considered as a significant difference.
Protocol for EL-4 lymphoma: Subcutaneous inoculation of EL-4 cell suspension to replicate a mouse lymphoma model: The EL-4 tumor tissue was ground into a suspension using a glass homogenizer, the tumor suspension was aspirated with a syringe, the number of live cells was calculated, the cell concentration was adjusted to 2.0*10^6/ml with physiological saline, and then the suspension was injected into the left armpit of mice with 0.2 ml/mouse. […] On the day of treatment, weight was measured, 20µl of blood was obtained from the orbital blood and the routine blood analysis was performed. The tumor blocks were stripped, weighed and photographed, and the tumor suppression rate was calculated.
as §1
Protocol for Lewis lung cancer: Subcutaneous inoculation of Lewis cell suspension to replicate mouse breast cancer model: The Lewis tumor tissue was ground into a suspension with a glass homogenizer, the tumor suspension was aspirated with a syringe, the number of live cells was calculated, the concentration of the cells was adjusted to 2.6*10^6/ml with physiological saline, and then the suspension was injected to the left armpit of the mouse with 0.2 ml/mouse. […] On the day of the treatment, the weight was measured, 20µl of blood was obtained from the orbital blood and the routine blood analysis was performed. The tumor blocks were stripped, weighed and photographed, and the tumor suppression rate was calculated.
The tumor suppression rate [(The average weight of the tumor in the normal control group - the average weight of the tumor in the experimental group) / The average weight of the tumor in the normal control group × 100 %] and the average value, standard deviation and standard errors of tumor weight were calculated . The data from the groups were compared with each other by T.TEST, and P<0.05 was considered as a significant difference.

For `O=P1(N(CCCl)CCCl)NCCCO1` (stereo not drawn) [cyclophosphamide, Cyclophosphamide], the “Change of weight Before administration” value (B16F10 melanoma; [3]) was 18.97 ± 0.55 g, the “Change of weight After administration” value (B16F10 melanoma; [4]) was 19.07 ± 1.46 g and the Tumor weight (B16F10 melanoma; [4]) was 0.26 ± 0.11 g. It also gave a Tumor suppression (B16F10 melanoma; cyclophosphamide 0.1 g/kg once a week, vs normal control group) of 85.82%, a Tumor weight (EL-4 lymphoma; [5]) of 0.12 ± 0.03 g and a Tumor suppression (EL-4 lymphoma; [6]) of 95.67%. For the same compound, the “leukocytes (routine blood analysis)” value (EL-4 lymphoma; [7]) was “significantly reduced”, the “lymphocytes (routine blood analysis)” value (EL-4 lymphoma; [7]) was “significantly reduced” and the “monocytes (routine blood analysis)” value (EL-4 lymphoma; [7]) was “significantly reduced”. The “neutrophils (routine blood analysis)” value (EL-4 lymphoma; [7]) was “significantly reduced”, the “Change of weight Before administration” value (Lewis lung cancer; [3]) was 17.60 ± 0.59 g and the “Change of weight After administration” value (Lewis lung cancer; [5]) was 19.95 ± 0.77 g. The Tumor weight (Lewis lung cancer; [5]) was 0.14 ± 0.09 g and the Tumor suppression (Lewis lung cancer; [6]) was 95.35%.
Compound `COc1cccc(C2(O)CCCCC2CN(C)C)c1` (stereo not drawn) [Tramadol Hydrochloride] has a Number of writhing [1] of 0.0±0.00.
For `CC(C)(C)NC(=O)[C@H]1CC[C@H]2[C@@H]3CC[C@H]4NC(=O)C=C[C@]4(C)[C@H]3CC[C@]12C` [finasteride], the “wet weight of the prostate” value ([2]; finasteride 1mg/kg orally) was 31.8 ± 4.8 mg, the Average weight ([2]; finasteride 1mg/kg orally) was 43.5 ± 3.5 g and the prostate index ([2]; finasteride 1mg/kg orally) was 0.75±0.12. For the same compound, the “wet weight of the prostate” value ([2]; finasteride 3mg/kg orally) was 29.2 ± 1.4 mg, the Average weight ([2]; finasteride 3mg/kg orally) was 40.7 ± 3.1 g and the prostate index ([2]; finasteride 3mg/kg orally) was 0.72±0.08.
